Reference: patent US9765092B2, “Tricyclic piperidine compounds” (ACTELION PHARMACEUTICALS LTD, priority 2013, dated 2017)

What follows are compounds tested against human TPH1 (Homo sapiens (Human), UniProt P17752) (assay: Biochemical in vitro assay using fluorescence readout (TPH1 inhibition)). Settings: full length human TPH1, 40 μM L-tryptophan, 15° C., 60 minutes, fluorescence at 540 nm; mean if determined several times.
human TPH1, sequence (P17752 whole entry): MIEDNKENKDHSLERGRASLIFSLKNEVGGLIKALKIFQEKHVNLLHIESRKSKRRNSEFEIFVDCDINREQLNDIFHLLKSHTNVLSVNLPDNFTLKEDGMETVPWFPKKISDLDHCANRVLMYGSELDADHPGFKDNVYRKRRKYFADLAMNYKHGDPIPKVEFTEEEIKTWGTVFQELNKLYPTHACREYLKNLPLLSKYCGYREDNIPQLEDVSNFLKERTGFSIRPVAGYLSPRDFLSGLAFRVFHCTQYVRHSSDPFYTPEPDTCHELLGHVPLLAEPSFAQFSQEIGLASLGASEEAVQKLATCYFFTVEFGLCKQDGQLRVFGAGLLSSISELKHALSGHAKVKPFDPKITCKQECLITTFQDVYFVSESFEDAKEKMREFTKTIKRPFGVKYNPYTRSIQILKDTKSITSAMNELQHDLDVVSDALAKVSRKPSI
Work on `Cc1nn2c3c(nc2s1)CCN(C(=O)COc1ccc(N2CCOCC2)nc1Cl)C3c1ccc(CN(C)C)s1` (stereo not drawn) [Example 1.36.1, 2-((2-Chloro-6-morpholinopyridin-3-yl)oxy)-1-(5-(5-((dimethylamino)-methyl)thiophen-2-yl)-2-methyl-7,8-dihydro-[1,3,4]thiadiazolo[2′,3′:2,3]imidazo[4,5-c]pyridin-6(5H)-yl)-ethanone] yielded an IC50 of 384 nM.
With `Cc1nn2c3c(nc2s1)CCN(C(=O)COc1ccc(C(=O)N(C)C)nc1Cl)C3c1cc(C(=O)N(C)C)cs1` (stereo not drawn) [Example 1.9.5, 6-Chloro-5-(2-(5-(4-(dimethylcarbamoyl)thiophen-2-yl)-2-methyl-7,8-dihydro-[1,3,4]-thiadiazolo[2′,3′:2,3]imidazo[4,5-c]pyridin-6(5H)-yl)-2-oxoethoxy)-N,N-dimethyl-picolinamide] the IC50 was 22 nM.
In the case of `Cc1nn2c3c(nc2s1)CCN(C(=O)COc1ccc(NS(C)(=O)=O)nc1Cl)C3c1ncc(C(=O)N(C)C)s1` (stereo not drawn) [Example 1.37.3, 2-(6-(2-((2-Chloro-6-(methylsulfonamido)pyridin-3-yl)oxy)acetyl)-2-methyl-5,6,7,8-tetrahydro-[1,3,4]thiadiazolo[2′,3′:2,3]imidazo[4,5-c]pyridin-5-yl)-N,N-dimethylthiazole-5-carboxamide], the IC50 is reported as 40 nM.
`CNc1ccc(OCC(=O)N2CCc3nc4sc(C)nn4c3C2c2ccc(Cl)cc2F)c(Cl)n1` (stereo not drawn) [Example 1.4.27, 1-(5-(4-Chloro-2-fluorophenyl)-2-methyl-7,8-dihydro-[1,3,4]thiadiazolo[2′,3′:2,3]imidazo[4,5-c]pyridin-6(5H)-yl)-2-((2-chloro-6-(methylamino)pyridin-3-yl)oxy)ethanone] was tested, and the IC50 was 6 nM.
`Cc1nn2c3c(nc2s1)CCN(C(=O)COc1cc(F)cnc1Cl)C3c1cnc(N(C)C)s1` (stereo not drawn) [Example 1.22.4, 2-((2-Chloro-5-fluoropyridin-3-yl)oxy)-1-(5-(2-(dimethylamino)thiazol-5-yl)-2-methyl-7,8-dihydro-[1,3,4]thiadiazolo[2′,3′:2,3]imidazo[4,5-c]pyridin-6(5H)-yl)ethanone] was tested, and the IC50 was 79 nM.

Same assay, conditions: human TPH1, fluorescence readout
Compound “2-((2-chloro-6-morpholinopyridin-3-yl)oxy)-1-(5-(4-(2-hydroxypropan-2-yl)thiophen-2-yl)-2-methyl-7,8-dihydro-[1,3,4]thiadiazolo[2′,3′:2,3]imidazo[4,5-c]pyridin-6(5H)-yl)ethanone [Example 1.19.1]” has an IC50 of 6 nM.
Compound `CNc1ccc(OCC(=O)N2CCc3nc4sc(C)nn4c3C2c2ccc(Cl)nc2F)c(Cl)n1` (stereo not drawn) [Example 1.16.3, 1-(5-(6-chloro-2-fluoropyridin-3-yl)-2-methyl-7,8-dihydro-[1,3,4]thiadiazolo[2′,3′:2,3]imidazo[4,5-c]pyridin-6(5H)-yl)-2-((2-chloro-6-(methylamino)pyridin-3-yl)oxy)ethanone] has an IC50 of 8 nM.
`CCc1nc(C)ccc1OCC(=O)N1CCc2nc3sc(C)nn3c2C1c1ccc(C2CC2)cc1F` (stereo not drawn) [Example 1.6.8, 1-(5-(4-cyclopropyl-2-fluorophenyl)-2-methyl-7,8-dihydro-[1,3,4]thiadiazolo[2′,3′:2,3]imidazo[4,5-c]pyridin-6(5H)-yl)-2-((2-ethyl-6-methylpyridin-3-yl)oxy)ethanone] showed an IC50 of 23 nM.
`CCc1nc(NS(C)(=O)=O)ncc1OCC(=O)N1CCc2nc3sc(C)nn3c2[C@@H]1c1ncc(C)cc1F` [Example 1.31.19, (R)-N-(4-ethyl-5-(2-(5-(3-fluoro-5-methylpyridin-2-yl)-2-methyl-7,8-dihydro-[1,3,4]thiadiazolo[2′,3′:2,3]imidazo[4,5-c]pyridin-6(5H)-yl)-2-oxoethoxy)pyrimidin-2-yl)methanesulfonamide] showed an IC50 of 51 nM.
Compound `Cc1nn2c3c(nc2s1)CCN(C(=O)COc1ccc(C(=O)N(C)C)nc1Cl)C3c1cnc(-c2ccccc2)s1` (stereo not drawn) [Example 1.60.1, 6-chloro-N,N-dimethyl-5-(2-(2-methyl-5-(2-phenylthiazol-5-yl)-7,8-dihydro-[1,3,4]thiadiazolo[2′,3′:2,3]imidazo[4,5-c]pyridin-6(5H)-yl)-2-oxoethoxy)picolinamide] has an IC50 of 14 nM.
`CCc1nc(C)ccc1OCC(=O)N1CCc2nc3sc(C)nn3c2C1c1cnc(OC(F)F)cc1C` (stereo not drawn) [Example 1.15.3, 1-(5-(6-(difluoromethoxy)-4-methylpyridin-3-yl)-2-methyl-7,8-dihydro-[1,3,4]thiadiazolo[2′,3′:2,3]imidazo[4,5c]pyridin-6(5H)-yl)-2-((2-ethyl-6-methylpyridin-3-yl)oxy)ethanone] gave an IC50 of 156 nM.
`Cc1cc(Cl)ccc1OCC(=O)N1CCc2nc3sccn3c2C1c1ccc(Cl)cc1F` (stereo not drawn) [Example 6.4.3, 1-(5-(4-chloro-2-fluorophenyl)-7,8-dihydrothiazolo-[2′,3′:2,3]imidazo[4,5-c]pyridin-6(5H)-yl)-2-(4-chloro-2-methylphenoxy)ethanone] was tested, and the IC50 was 6 nM.
`Cc1ccc(C2c3c(nc4sc(C)nn34)CCN2C(=O)COc2ccc(-c3ncco3)nc2Cl)c(F)c1` (stereo not drawn) [Example 1.53.1, 2-((2-chloro-6-(oxazol-2-yl)pyridin-3-yl)oxy)-1-(5-(2-fluoro-4-methylphenyl)-2-methyl-7,8-dihydro-[1,3,4]thiadiazolo[2′,3′:2,3]imidazo[4,5-c]pyridin-6(5H)-yl)ethanone] was tested, and the IC50 was 9 nM.
`CCOC(=O)c1ncc(C2c3c(nc4sc(C)nn34)CCN2C(=O)COc2ccc(N3CCOCC3)nc2Cl)s1` (stereo not drawn) [Example 1.30.1, Ethyl 5-(6-(2-((2-chloro-6-morpholinopyridin-3-yl)oxy)acetyl)-2-methyl-5,6,7,8-tetrahydro-[1,3,4]thiadiazolo [2′,3′:2,3]imidazo[4,5-c]pyridin-5-yl)thiazole-2-carboxylate] showed an IC50 of 9 nM.
In the case of `Cc1nn2c3c(nc2s1)CCN(C(=O)COc1ccc(C(=O)N(C)C)nc1Cl)C3c1cccc(Cl)c1F` (stereo not drawn) [Example 1.58.1, 6-chloro-5-(2-(5-(3-chloro-2-fluorophenyl)-2-methyl-7,8-dihydro-[1,3,4]thiadiazolo[2′,3′:2,3]imidazo[4,5-c]pyridin-6(5H)-yl)-2-oxoethoxy)-N,N-dimethylpicolinamide], the IC50 is reported as 42 nM.
Compound “5-(2-(5-(4-(aminomethyl)-2-fluorophenyl)-2-methyl-7,8-dihydro-[1,3,4]thiadiazolo[2′,3′:2,3]imidazo[4,5-c]pyridin-6(5H)-yl)-2-oxoethoxy)-6-chloro-N-cyclopropylpicolinamide [Example 1.78.2]” has an IC50 of 18 nM.
With `CCc1nc(N2CCCS2(=O)=O)ccc1OCC(=O)N1CCc2nc3sc(C(F)(F)F)nn3c2C1c1ncc(C)cc1F` (stereo not drawn) [Example 5.2.1, 2-((6-(1,1-dioxidoisothiazolidin-2-yl)-2-ethylpyridin-3-yl)oxy)-1-(5-(3-fluoro-5-methylpyridin-2-yl)-2-(trifluoromethyl)-7,8-dihydro-[1,3,4]thiadiazolo[2′,3′:2,3]imidazo[4,5-c]pyridin-6(5H)-yl)ethanone] the IC50 was 13 nM.
`CCc1nc(NS(C)(=O)=O)ccc1OCC(=O)N1CCc2nc3sc(C)nn3c2C1c1ccc(C)c(F)c1F` (stereo not drawn) [Example 1.61.5, N-(5-(2-(5-(2,3-difluoro-4-methylphenyl)-2-methyl-7,8-dihydro-[1,3,4]thiadiazolo[2′,3′:2,3]imidazo[4,5-c]pyridin-6(5H)-yl)-2-oxoethoxy)-6-ethylpyridin-2-yl)methanesulfonamide] was tested, and the IC50 was 9 nM.
